The term IC50 denotes the concentration needed to halve the response being measured.

The values below come from patent US8362008B2 (The University Of Edinburgh, priority 2007, dated 2013).

Structures can show the parent of a compound that is named as a salt.

The first assay deals with T1, human 11β-HSD1 enzyme (Homo sapiens, UniProt P28845).
T1 construct: stably transfected with a construct containing the full-length gene coding for the human 11β-HSD1 enzyme; expressed in transfected cells; host or cells: HEK293 (HEK293/11β-HSD1 cells)
T1 sequence (P28845 whole entry): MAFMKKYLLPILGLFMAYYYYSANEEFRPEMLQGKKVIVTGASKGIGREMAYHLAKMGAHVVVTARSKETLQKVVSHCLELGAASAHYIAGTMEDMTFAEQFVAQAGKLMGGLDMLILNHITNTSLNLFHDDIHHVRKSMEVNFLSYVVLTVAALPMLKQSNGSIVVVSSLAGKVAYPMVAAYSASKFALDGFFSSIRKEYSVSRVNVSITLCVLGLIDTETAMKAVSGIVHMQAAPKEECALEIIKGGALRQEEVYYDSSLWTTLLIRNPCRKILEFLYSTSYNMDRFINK
In words: Cellular in vitro 11β-HSD1 enzyme inhibition assay (SPA, HEK293/11β-HSD1 cells). It counts as cell-based. Particulars: HEK293, less than or equal to 1000 nM (1 μM). The protocol: Cellular In Vitro 11β-HSD1 Enzyme Inhibition Assay
Compounds were assessed by a Scintillation Proximity Assay (SPA) performed according to the following protocol:
HEK293 cells were stably transfected with a construct containing the full-length gene coding for the human 11β-HSD1 enzyme to create HEK293/11β-HSD1 cells. Cells were routinely cultured in DMEM containing 10% calf foetal serum, 1% glutamine, and 1% penicillin and streptomycin. Prior to assay, cells were plated at 2×10^4 cells/well in 96-well poly-D-Lys coated flat-bottomed microplates and incubated in 5% CO2, 95% O2 at 37° C. for 24 hours. The media in each well was removed immediately before assay.
Compounds to be tested were dissolved in DMSO at 10 mM and serially diluted into water containing 10% DMSO. Diluted compounds at a volume of 10 μL were added to wells of a 96-well V-bottomed microplate. […] This solution (100 μL/well) was transferred to the plate containing the cells. The plate was then incubated in 5% CO2, 95% O2 at 37° C. for 2 hours.
Following this incubation, 50 μL of the assay solution was transferred to each well of a 96-well scintillation microplate. A mixture consisting of anti-mouse YSi SPA beads, pre-mixed with anti-cortisol antibody in assay buffer (50 mM Tris.HCl, pH 7.0; 300 mM NaCl; 1 mM EDTA, 5% glycerol) was prepared and 50 μL added to each well of the scintillation microplate. An adhesive strip was applied to the microplate and the plate gently shaken for at least 2 hours at room temperature, and then spun briefly on a low speed centrifuge. The plate was read on a scintillation counter suitable for 96-well microplates. For the calculation of percentage inhibition, a series of wells were added to the plate that represented the assay maximum and the assay minimum: one set that contained substrate without cells (mimimum) and another set that contained substrate and cells without any compound (maximum).
The calculation of median inhibitory concentration (IC50) values for the compounds was performed using GraphPad Prism® software. Dose-response curves for each compound were plotted as fractional inhibition and data fitted to the four parameter logistic equation.
As for `O=C(NCCO)N1CCC(c2cc(C(=O)N3CCCC4CCCCC43)cs2)CC1` (centres unmarked) [CC-173], the IC50 is no more than 1000 nM. In turn, `O=C(CCc1ccncc1)N1CCC(c2cc(C(=O)N3CCCC4CCCCC43)cs2)CC1` (centres unmarked) [CC-149] gave a half-inhibitory concentration (IC50) of no more than 1000 nM. For `Cn1ccnc1CN1CCC(c2cc(C(=O)N3CCCC4CCCCC43)cs2)CC1` (centres unmarked) [CC-154], the IC50 was no more than 1000 nM.

For `O=C(c1csc(C2=CCNCC2)c1)N1CCCCC1c1ccccc1` (centres unmarked) [CC-123], the IC50 is no more than 1000 nM.

`CCc1cc(C(=O)N2C3CCCC2CC3)cs1` [AA-016] displayed an IC50 of no more than 1000 nM.

Take `O=C(c1csc(C2=CCNCC2)c1)N1CCCC2CCCCC21` (centres unmarked) [CC-047]: the IC50 was no more than 1000 nM. `Cc1ccccc1OCc1cc(C(=O)N2CCCCC2)cs1` [BB-002, Piperidin-1-yl-(5-o-tolyloxymethyl-thiophen-3-yl)-methanone]: the IC50 was no more than 1000 nM. As to `CC1(C)CC2CC(C)(CN2C(=O)c2csc(C3CCCCC3)c2)C1` (centres unmarked) [DD-005], the IC50 was no more than 1000 nM. The same measure, in the same setting: then `O=C(c1csc(C2CCOCC2)c1)N1CCC[C@@H]2CCCC[C@@H]21` (single isomer, unassigned) [CC-140, cis-(octahydro-quinolin-1-yl)-[5-(tetrahydro-pyran-4-yl)-thiophen-3-yl]-methanone], with no more than 1000 nM. On the same count and under the same terms, then `O=C(N1CCCC1)N1CCC(c2cc(C(=O)N3CCCC4CCCCC43)cs2)CC1` (centres unmarked) [CC-116], with no more than 1000 nM; and `CC(C)(C(N)=O)N1CCC(c2cc(C(=O)N3CCCC4CCCCC43)cs2)CC1` (centres unmarked) [CC-174], with no more than 1000 nM. Turning to `CCc1cc(C(=O)N2CC3CC4CC(C3)CC2C4)cs1` [AA-015], the IC50 was no more than 1000 nM. As to `O=C(CN1CCOCC1)N1CCC(c2cc(C(=O)N3CCCC4CCCCC43)cs2)CC1` (centres unmarked) [CC-059], the IC50 is no more than 1000 nM. Compound `CCCCCc1cc(C(=O)N2CCCC3CCCCC32)cs1` (centres unmarked) [AA-011] came in with an IC50 of no more than 1000 nM. As to `O=C(Cc1cccnc1)N1CCC(c2cc(C(=O)N3CCCC4CCCCC43)cs2)CC1` (centres unmarked) [CC-134], the IC50 is no more than 1000 nM. Compound `O=C(c1csc(C2CCSCC2)c1)N1CCCC2CCCCC21` (centres unmarked) [CC-136] displayed an IC50 of no more than 1000 nM.

Regarding `CC1(C)CCCCN(C(=O)c2csc(C3CCOCC3)c2)C1` [CC-022], the IC50 was no more than 1000 nM.

The compound `O=C(c1cc(C2CCOCC2)sc1Cl)N1CCCCCC1` [CC-006, Azepan-1-yl-[2-chloro-5-(tetrahydro-pyran-4-yl)-thiophen-3-yl]methanone] returned an IC50 of no more than 1000 nM. Same read-out and setting: then `Cn1cncc1C(=O)N1CCC(c2cc(C(=O)N3CCCC4CCCCC43)cs2)CC1` (centres unmarked) [CC-084], with no more than 1000 nM; and `O=C1COCCN1c1cc(C(=O)N2CCCC3CCCCC32)cs1` (centres unmarked) [CC-050], with no more than 1000 nM. `CC1(C)CC2CC(C)(CN2C(=O)c2csc(C3CCOCC3)c2)C1` (centres unmarked) [CC-069] yielded an IC50 of no more than 1000 nM. The same measure, in the same setting: then `O=C(c1csc(C2=CCNCC2)c1)N1CCCC(F)(F)CC1` [CC-126], with no more than 1000 nM; and `O=C(NCc1ccccn1)N1CCC(c2cc(C(=O)N3CCCC4CCCCC43)cs2)CC1` (centres unmarked) [CC-166], with no more than 1000 nM; and `CC1(C)CCCN(C(=O)c2csc(C3CCN(C(C)(C)C(N)=O)CC3)c2)CC1` [CC-137], with no more than 1000 nM.

The compound `CC1(C)CC2CC(C)(CN2C(=O)c2csc(C3=CCNCC3)c2)C1` (centres unmarked) [CC-074] showed a concentration for half-maximal inhibition (IC50) of no more than 1000 nM.

`O=C(c1csc(C2CCNC2)c1)N1CCC[C@@H]2CCCC[C@@H]21` (relative stereo) [CC-177, cis-(Octahydro-quinolin-1-yl)-(5-pyrrolidin-3-yl-thiophen-3-yl)-methanone] gave an IC50 of no more than 1000 nM. Same read-out and setting: then `O=C(c1csc(C2=CCNCC2)c1)N1CCC[C@@H]2CCCC[C@@H]21` (relative stereo) [CC-046, cis-(octahydro-quinolin-1-yl)-[5-(1,2,3,6-tetrahydro-pyridin-4-yl)-thiophen-3-yl]-methanone], with no more than 1000 nM; and `CCc1cc(C(=O)N2CCCC3CCCCC32)cs1` (centres unmarked) [AA-009], with no more than 1000 nM; and `CC1(C)CC2CC(C)(CN2C(=O)c2csc(C3CCCNC3)c2)C1` (centres unmarked) [CC-073], with no more than 1000 nM. In turn, `CS(=O)(=O)N1CCC(c2cc(C(=O)N3CCC[C@@H]4CCCC[C@@H]43)cs2)CC1` (relative stereo) [CC-065, cis-[5-(1-Methanesulfonyl-piperidin-4-yl)-thiophen-3-yl]-(octahydro-quinolin-1-yl)-methanone] had an IC50 of no more than 1000 nM.

Staying with this assay, now noted: HEK293, more than 1000 nM (1.0 μM) and less than or equal to 30 μM.
Turning to `O=C(c1csc(C2CCCCC2)c1)N1CCCC2CCCCC21` (centres unmarked) [DD-003], the IC50 fell in the range of 1000 to 30000 nM. Still for that read-out and setting: the value for `CN1CCC(c2cc(C(=O)N3CCC[C@@H]4CCCC[C@@H]43)cs2)CC1` (relative stereo) [CC-038, cis-[5-(1-Methyl-piperidin-4-yl)-thiophen-3-yl]-(octahydro-quinolin-1-yl)-methanone] was 1000 to 30000 nM. For `CNCC(=O)N1CCC(c2cc(C(=O)N3CCC[C@@H]4CCCC[C@@H]43)cs2)CC1` (relative stereo) [CC-055, cis-2-Methylamino-1-{4-[4-(octahydro-quinoline-1-carbonyl)-thiophen-2-yl]-piperidin-1-yl}-ethanone], the IC50 lay in the range of 1000 to 30000 nM. Turning to `O=C(OCc1ccccc1)N1CCC(c2cc(C(=O)N3CCCC4CCCCC43)cs2)CC1` (centres unmarked) [CC-032], the IC50 is 1000 to 30000 nM. `O=C(c1csc(C2CCNCC2)c1)N1CCCCCC1c1ccccc1` (centres unmarked) [CC-107] came in with a half-inhibitory concentration (IC50) of 1000 to 30000 nM. Same read-out and setting: then `CC(C)OC(=O)N1CCC(c2cc(C(=O)N3CCCC4CCCCC43)cs2)CC1` (centres unmarked) [CC-067], with 1000 to 30000 nM; and `O=C(CCN1CCCCC1)N1CCC(c2cc(C(=O)N3CCCC4CCCCC43)cs2)CC1` (centres unmarked) [CC-062], with 1000 to 30000 nM; and `Cc1cc(C(=O)N2CCC(c3cc(C(=O)N4CCCC5CCCCC54)cs3)CC2)no1` (centres unmarked) [CC-109], with 1000 to 30000 nM.

For the compound `O=C(c1csc(C2CCN(CCO)CC2)c1)N1CCC[C@@H]2CCCC[C@@H]21` (racemic) [CC-088, cis-1-(2-Hydroxy-ethyl)-4-[4-(octahydro-quinoline-1-carbonyl)-thiophen-2-yl]-piperidinium formate], the IC50 lay within 1000 to 30000 nM. For the compound `CC(C)CS(=O)(=O)N1CCC(c2cc(C(=O)N3CCCC4CCCCC43)cs2)CC1` (centres unmarked) [CC-105], the IC50 lay within 1000 to 30000 nM. Still for that read-out and setting: then `O=C(OCc1ccccc1)N1CCC(c2cc(C(=O)N3CCCCCC3)c(Cl)s2)CC1` [CC-009, 4-[4-(Azepane-1-carbonyl)-5-chloro-thiophen-2-yl]-piperidine-1-carboxylic acid benzyl ester], with 1000 to 30000 nM; and `CCc1cc(C(=O)N2CCCCC2)c(C#N)s1` [AA-003, 5-Ethyl-3-(piperidine-1-carbonyl)-thiophene-2-carbonitrile], with 1000 to 30000 nM; and `O=C(c1ccno1)N1CCC(c2cc(C(=O)N3CCCC4CCCCC43)cs2)CC1` (centres unmarked) [CC-052], with 1000 to 30000 nM. In turn, `C[C@@H]1CN(C(=O)c2csc(C3CCNCC3)c2)C[C@H](C)O1` [CC-019] came in with an IC50 of 1000 to 30000 nM. As to `O=C(OCc1ccccc1)N1CCC(c2cc(C(=O)N3CCCC4(CCCCC4)C3)cs2)CC1` [CC-078], the IC50 lay within 1000 to 30000 nM. `COCCCN1CCC(c2cc(C(=O)N3CCCC4CCCCC43)cs2)CC1` (centres unmarked) [CC-089] registered an IC50 of 1000 to 30000 nM.

The compound `O=C(c1csc(C2CCNCC2)c1)N1CCC[C@@H]2CCCC[C@H]21` (relative stereo) [CC-034, trans-(Octahydro-quinolin-1-yl)-(5-piperidin-4-yl-thiophen-3-yl)-methanone] showed an IC50 of 1000 to 30000 nM. The same measure, in the same setting: then `O=C(c1csc(C2CCN(CC(F)(F)F)CC2)c1)N1CCC[C@@H]2CCCC[C@@H]21` (relative stereo) [CC-172, cis-(Octahydro-quinolin-1-yl)-{5-[1-(2,2,2-trifluoro-ethyl)-piperidin-4-yl]-thiophen-3-yl}-methanone], with 1000 to 30000 nM; and `O=C(c1csc(C2CCNCC2)c1)N1CCN2CCCCC2C1` (centres unmarked) [CC-042], with 1000 to 30000 nM.

On to `O=C(c1csc(C2CCNCC2)c1)N1CCC[C@@H]2CCCC[C@@H]21` (single isomer, unassigned) [CC-039, cis-(octahydro-quinolin-1-yl)-(5-piperidin-4-yl-thiophen-3-yl)-methanone], for which the IC50 fell in the range of 1000 to 30000 nM.

Consider `O=C(c1csc(C2CCN(S(=O)(=O)c3ccccc3)CC2)c1)N1CCCC2CCCCC21` (centres unmarked) [CC-092], for which the half-maximal inhibitory concentration (IC50) was in the range of 1000 to 30000 nM. Compound `O=C(c1csc(COc2ccc(-n3cncn3)cc2)c1)N1CCCCC1` [BB-004] yielded an IC50 of 1000 to 30000 nM. As for `CCc1cc(C(=O)N2CCCCCC2)c(C#N)s1` [AA-006], the IC50 fell in the range of 1000 to 30000 nM.

`CC1(C)CCCN(C(=O)c2csc(C3CCNCC3)c2)C1` [CC-013]: the IC50 lay in the range of 1000 to 30000 nM.

In turn, `O=C(c1csc(C2CCNCC2)c1)N1CCN2CCC[C@H]2C1` [CC-041] had an IC50 of 1000 to 30000 nM. As to `O=C(c1csc(C2CCNCC2)c1)N1CCC(F)(F)C2CCCCC21` (centres unmarked) [CC-131], the IC50 fell in the range of 1000 to 30000 nM.
